Assay results: patent publication US9833431B2, “Pharmaceutical combinations for the treatment of cancer” (Pitney Pharmaceuticals Pty Limited, priority 2013, dated 2017)
Entries after “also recorded” stand apart in the source; their conditions may differ. Read-outs that look alike come from different tables or passages of the source.

Experiments:
PET = assay: SRB cytotoxicity assay, PET cells; format: cell-based, human; settings: PET mesothelioma cells; 72 h; FIG. 25
Method: (§1) All cell lines described herein were purchased from ATCC. […] Control cultures were treated with ethanol alone.

CFPAC-1 = assay: SRB cytotoxicity assay, CFPAC-1 cells; settings: CFPAC-1 cells, 72 h
Method: (§2) Cells were seeded in 96-well plates (2,000-3,000 cells/well) and culture overnight prior to treatment with MPL. Control cultures were treated with ethanol alone.
(§3) Cytotoxicity was assessed using the sulforhodamine B (SRB) assay and reported as half maximal inhibitory concentration (IC50; Table 3). Cells were seeded in 96-well plates (2,000-3,000 cells/well), treated with the indicated compound(s) for 72 h, fixed, washed and stained with 100 μl of 0.4% (w/v) SRB dissolved in 1% acetic acid. Unbound dye was removed by five washes with 1% acetic acid before air-drying.
(§4) MPL (5 μM) and combination drugs were applied for 72 h unless indicated.

REN = assay: SRB cytotoxicity assay, REN cells; format: cell-based, human; settings: REN mesothelioma cells; 72 h; FIG. 25
Method: as §1

LN-18 = assay: SRB cytotoxicity assay, LN-18 cells; format: cell-based, human; settings: 72 h; for Interaction of the drug with MPL (synergy), in words: LN18 cells, FIG. 21
Method: as §1

AsPC1 = assay: SRB cytotoxicity assay, AsPC1 cells; format: cell-based, human; settings: AsPC-1 cells; 72 h; FIG. 23
Method: as §1

HT-29 = assay: cells; format: cell-based; settings: 72 h
Method: as §1

YOU = assay: SRB cytotoxicity assay, YOU cells; format: cell-based, human; settings: YOU mesothelioma cells; 72 h; FIG. 25
Method: as §1

C170 = assay: SRB cytotoxicity assay, C170 cells; format: cell-based; settings: C170 cells; MPL 5 μM; 5-FU 20 μM, gemcitabine 0.5 μM, oxaliplatin 1 μM; 72 h; FIG. 27
Method: as §1

A2780 = assay: SRB cytotoxicity / proliferation assay, A2780 cells; settings: for Interaction of the drug with MPL (synergy), in words: 72 h
Method: as §2
(§5) Cells were seeded in 96-well plates (2,000-3,000 cells/well), treated with the indicated compound(s) for 72 h, fixed, washed and stained with 100 μl of 0.4% (w/v) SRB dissolved in 1% acetic acid. Unbound dye was removed by five washes with 1% acetic acid before air-drying.
Cell viability was conducted according to standard Trypan Blue method. Cell proliferation was assessed using the sulforhodamine B (SRB) assay. For viability experiments, cells were seeded in 6 well plates, whereas for proliferation assays cells were grown in 96 well plates. Following over-night attachment, cells were treated with the intended drug at various concentrations either alone or in combination with monepantel (MPL) for 72 h. Parallel to this, cells treated with MPL alone were also deployed for comparative purposes. Following incubation for 72 h in a standard cell culture incubator, effect of mono and combined drug treatments on cell viability and/or cell proliferation was assessed through using Trypan Blue or SRB assays respectively.
(§6) For viability assay, at the end of treatment period, cells were washed with PBS, trypsinized and counted using Trypan blue and hemocytometer. For the SRB assay cells were fixed, washed and stained with 100 μl of 0.4% (w/v) SRB dissolved in 1% acetic acid. Unbound dye was removed by five washes with 1% acetic acid before air drying. […] Monepantel (gift by Novartis, Basel, Switzerland) was dissolved in 100% ethanol and then diluted with the cell culture media.

Hep3B = assay: SRB cytotoxicity assay, Hep3B cells; format: cell-based, human; settings: Hep3B cells; MPL at 5 μM; 48 h; FIG. 24
Method: as §1

OVCAR-3 and A2780 = format: cell-based, human; settings: Example 2; cell line not given
HOSE [1] = assay: SRB cytotoxicity assay, HOSE non-malignant control cells; settings: for Interaction of the drug with MPL (synergy), in words: HOSE non-malignant control cells, concentrations as stated at the place or in the figure
Method: (§7) All cell lines described herein were purchased from ATCC. Cells were seeded in 96-well plates (2,000-3,000 cells/well) and culture overnight prior to treatment with MPL. Control cultures were treated with ethanol alone.
as §5
(§8) Corresponding cytotoxicity of the major metabolite MPL-SO2 has also been tested where indicated. […] HUVEC, human fetal astrocytes and HOSE cells are non-transformed, non-immortalized and non-malignant, freshly isolated/low passage number cell populations, from apparently healthy non-diseased tissue. These healthy cell populations were included in the experimental series as controls for non-specific toxicity. Both MPL and MPL-SO2 were suspended in ethanol and applied in final concentrations of 0.5 to 1% ethanol in the respective culture media.
(§9) In order to evaluate the effect of MPL on the in vitro efficacy of an established drug was evaluated using cell viability and cell proliferation assays. Cell viability was conducted according to standard Trypan Blue method. Cell proliferation was assessed using the sulforhodamine B (SRB) assay. For viability experiments, cells were seeded in 6 well plates, whereas for proliferation assays cells were grown in 96 well plates. Following over-night attachment, cells were treated with the intended drug at various concentrations either alone or in combination with monepantel (MPL) for 72 h. Parallel to this, cells treated with MPL alone were also deployed for comparative purposes. Following incubation for 72 h in a standard cell culture incubator, effect of mono and combined drug treatments on cell viability and/or cell proliferation was assessed through using Trypan Blue or SRB assays respectively.
(§10) For viability assay, at the end of treatment period, cells were washed with PBS, trypsinized and counted using Trypan blue and hemocytometer. For the SRB assay cells were fixed, washed and stained with 100 μl of 0.4% (w/v) SRB dissolved in 1% acetic acid. Unbound dye was removed by five washes with 1% acetic acid before air drying. […] Monepantel (gift by Novartis, Basel, Switzerland) was dissolved in 100% ethanol and then diluted with the cell culture media. Other agents employed in the study were purchased either from Sigma Australia or Sapphire Australia, prepared and preserved for cell culture use according to supplier instructions.
as §4

HOSE [2] = system: HOSE
Method: as §7, §5, §8, §9, §10, §4

OVCAR-3 = assay: SRB cytotoxicity / proliferation assay, OVCAR-3 cells; settings: for Interaction of the drug with MPL (synergy), in words: OVCAR-3 cells, concentrations as stated in the figure
Method: as §2, §3, §9, §6, §4

U87 = assay: SRB cytotoxicity assay, U87 cells; format: cell-based, human; settings: U87 cells; 72 h; FIG. 21
Method: as §1

[3] = system: all cell lines and cells tested; assay: SRB cytotoxicity assay, all cells of Table 3; format: cell-based
Method: as §1

IGROV-1 = assay: SRB cytotoxicity assay, IGROV-1 cells; format: cell-based; settings: Homo sapiens, IGROV-1, malignant, ovarian, 72 h
Method: as §1

1A9 = assay: SRB cytotoxicity assay, 1A9 cells; format: cell-based; settings: Homo sapiens, 1A9, malignant, ovarian, 72 h
Method: as §1

MCF-7 = assay: SRB cytotoxicity assay, MCF-7 cells; format: cell-based; settings: Homo sapiens, MCF7, 72 h, MCF-7, malignant, breast
Method: as §1

CHO = assay: SRB cytotoxicity assay, CHO cells; format: cell-based; settings: Cricetulus griseus, immortalised, ovarian, 72 h
Method: as §1

HaCat = assay: SRB cytotoxicity assay, HaCat cells; format: cell-based; settings: Homo sapiens, immortalised, epidermal, 72 h
Method: as §1

HUVEC = assay: SRB cytotoxicity assay, HUVEC; format: cell-based; settings: Homo sapiens, non-malignant, endothelial, 72 h
Method: as §1

SKOV-3 = assay: SRB cytotoxicity assay, SKOV-3 cells; format: cell-based; settings: Homo sapiens, SK-OV-3, SKOV-3, malignant, ovarian, 72 h
Method: as §1

[4] = A2780 cells, concentrations as stated at the place or in the figure

Nc1ccn([C@@H]2O[C@H](CO)[C@@H](O)C2(F)F)c(=O)n1 [Gemcitabine]
Interaction of the drug with MPL (synergy), in words (PET): do not display a synergistic interaction
Interaction of the drug with MPL (synergy), in words (CFPAC-1; 5 μM MPL, FIG. 23): synergistic interaction; also recorded: synergistically exerted a cytotoxic effect
Interaction of the drug(s) with MPL (synergy), in words (CFPAC-1; 10 μM MPL, data not shown): synergistically exerted a cytotoxic effect
Interaction of the drug with MPL (synergy), in words (REN): do not display a synergistic interaction
Interaction of the drug with MPL (synergy), in words (LN-18): synergistic interaction; also recorded: synergistically inhibits
Interaction of the drug with MPL (synergy), in words (AsPC1): strong synergistic interaction; also recorded: synergistically inhibits
Interaction of the drug(s) with MPL (synergy), in words (HT-29; HT29 cells, MPL 5 μM, 5-FU 20 μM, gemcitabine 0.5 μM, oxaliplatin 1 μM, FIG. 27): synergistic cytotoxicity
Interaction of the drug with MPL (synergy), in words (YOU): do not display a synergistic interaction
Interaction of the drug(s) with MPL (synergy), in words (C170): synergistic cytotoxicity
Interaction of the drug with MPL (synergy), in words (A2780; [4]): strong synergistic interaction
Interaction of the drug with MPL (synergy), in words (A2780; A2780 cells, concentrations as stated at the place or in the figure, listed as gemcitabine): synergistically inhibits
Interaction of the drug with MPL (synergy), in words (Hep3B): No synergy was observed
effect of combination with MPL, in words (OVCAR-3 and A2780): notable increase in efficacy
Interaction of the drug with MPL (synergy), in words (HOSE [1]; 72 h): do not display the same synergistic interaction
Interaction of the drug with MPL (synergy), in words (HOSE [1]; 72 h, listed as gemcitabine): do not display a synergistic interaction; also recorded: without displaying a synergistic interaction

O=C1[O][Pt]2([NH][C@@H]3CCCC[C@H]3[NH]2)[O]C1=O [Oxaliplatin]
Interaction of the drug with MPL (synergy / additive cytotoxicity), in words (HOSE [2]): does not exert any additive cytotoxic effect
Interaction of the drug with MPL (synergy / additive cytotoxicity), in words (HOSE [1]; HOSE cells, MPL at 5 μM, 48 h, FIG. 24): does not display a synergistic cytotoxicity

CN(C)c1ccc(O)c2c1C[C@H]1C[C@H]3[C@H](N(C)C)C(O)=C(C(N)=O)C(=O)[C@@]3(O)C(O)=C1C2=O [Mino, minocycline]
B) Double treatment with MPL: synergistic cytotoxicity, one symbol per experiment (OVCAR-3; OVCAR-3, MPL 5.0 μM + Mino (5 μM), 72 h): ✓✓✓
B) Double treatment with MPL: synergistic cytotoxicity, one symbol per experiment (OVCAR-3; OVCAR-3, MPL 5.0 μM + Mino (10 μM), 72 h): ✓✓✓
B) Double treatment with MPL: synergistic cytotoxicity, one symbol per experiment (HOSE [1]; HOSE, MPL 5.0 μM + Mino (5 μM), 72 h): ✓✓✓

COc1cc2c(c(OC)c1OC)-c1ccc(OC)c(=O)cc1[C@@H](NC(C)=O)CC2 [Colchicine]
Interaction of the drug with MPL (synergy), in words (A2780; [4]): cytotoxic effect
Interaction of the drug with MPL (synergy), in words (A2780; A2780 cells, concentrations as stated at the place or in the figure, listed as colchicine): synergistic effect; also recorded: synergistic cytotoxicity

O=c1[nH]cc(F)c(=O)[nH]1 [Fluorouracil]
Interaction of the drug(s) with MPL (synergy), in words (C170): synergistic cytotoxicity
effect of combination with MPL, in words (OVCAR-3 and A2780): significant increase in the effect

COc1cccc2c1C(=O)c1c(O)c3c(c(O)c1C2=O)C[C@@](O)(C(=O)CO)C[C@@H]3O[C@H]1C[C@H](N)[C@H](O)[C@H](C)O1 [Doxorubicin]
Interaction of the drug with MPL (synergy), in words (PET): synergistic interaction; also recorded: synergistic inhibition
Interaction of the drug with MPL (synergy), in words (REN): synergistic interaction; also recorded: synergistic inhibition
Interaction of the drug with MPL (synergy), in words (OVCAR-3; 72 h): synergistic interaction; also recorded: synergistic inhibition; also recorded: synergistic cytotoxic effect
Interaction of the drug with MPL (synergy), in words (LN-18): synergistic interaction; also recorded: synergistic inhibition
Interaction of the drug with MPL (synergy), in words (AsPC1): do not display a synergistic interaction
Interaction of the drug with MPL (synergy), in words (YOU): synergistic interaction; also recorded: synergistic inhibition
Interaction of the drug with MPL (synergy), in words (U87): synergistic interaction; also recorded: synergistic inhibition
Interaction of the drug with MPL (synergy), in words (A2780; A2780 cells, concentrations as stated in the figure): synergy; also recorded: synergistic interaction; also recorded: synergistic inhibition
doxorubicin concentration in the absence of MPL equivalent to doxorubicin (10 nM) in the presence of MPL (5 μM) (A2780; A2780 cells, FIG. 1): 1000 nM
IC50 (A2780; read-out: IC50 value, cell proliferation, A2780 cells, with addition of 5 μM MPL, approximate values, FIG. 1): ~1 nM
IC50 (A2780; read-out: IC50 value, cell proliferation, A2780 cells, without MPL, approximate values, FIG. 1): ~500 nM
Interaction of the drug with MPL (synergy), in words (Hep3B): synergistic cytotoxicity; also recorded: synergistically inhibits; also recorded: synergistically cytotoxic

Cn1c(=O)c2c(ncn2C)n(C)c1=O [caffeine]
Interaction of the drug with MPL (synergy), in words (OVCAR-3; 72 h): no synergistic effect

c1ccc([C@H]2CN3CCSC3=N2)cc1 [Levamisole]
Synergistic cytotoxicity between MPL and combined drug (OVCAR-3; OVCAR-3, 5 μM MPL + drug, 72 h, Table 7): ✓^3
Interaction of the drug with MPL (synergy), in words (OVCAR-3; 72 h): significant synergistic effect; also recorded: does so against OVCAR-3 cells
Interaction of the drug with MPL (synergy), in words (A2780; [4]): did not display a synergistic effect
Interaction of the drug with MPL (synergy), in words (A2780; A2780 cells, concentrations as stated at the place or in the figure, listed as levamisole): does not display a synergistic cytotoxicity
synergistic cytotoxic effect with MPL, predicted (A2780; A2780 cells, levamisole at higher concentrations): may exert a synergistic cytotoxic effect

CC/C(=C(\c1ccccc1)c1ccc(OCCN(C)C)cc1)c1ccccc1 [Tamoxifen]
effect of combination with MPL, in words (OVCAR-3 and A2780): significant increase in the effect

CCCSc1ccc2nc(NC(=O)OC)[nH]c2c1 [A8Z, albendazole]
Interaction of the drug with MPL (synergy), in words (A2780; [4]): good synergistic effect

CN/C(=N/CCSCc1nc[nH]c1C)NC#N [Cimetidine]
Interaction of the drug with MPL (synergy), in words (A2780; [4]): significant combination synergistic effect

NC(Cc1c[nH]cn1)C(=O)O (racemic) [DL-histidine]
Interaction of the drug with MPL (synergy), in words (OVCAR-3; 72 h): no synergistic effect
effect of combination with MPL, in words (OVCAR-3 and A2780): no effect

C[C@](C#N)(COc1cc(C#N)ccc1C(F)(F)F)NC(=O)c1ccc(S(=O)(=O)C(F)(F)F)cc1 [MPL-SO2, monepantel sulphone]
cytotoxicity compared with MPL [3]: generally comparable to the parent compound
IC50 (OVCAR-3; Homo sapiens, OVCAR-3, 72 h): 5.5 ± 1.3 µM
IC50 (LN-18; Homo sapiens, LN-18, malignant, glial, SRB): 6.6 ± 0.7 µM
IC50 (IGROV-1): 4.4 ± 1.5 µM
IC50 (1A9): 3.4 ± 0.1 µM
IC50 (HT-29; Homo sapiens, HT-29, malignant, colorectal, SRB): 2800 ± 700 nM
IC50 (MCF-7): 8 ± 0.7 µM
IC50 (CHO): 73.7 ± 6.9 µM
IC50 (HaCat): 42.7 ± 8 µM
IC50 (HUVEC): 47 µM
IC50 (A2780; Homo sapiens, A2780, 72 h): 4200 ± 2100 nM
IC50 (SKOV-3): 26 µM

NCC(=O)O [glycine]
Interaction of the drug with MPL (synergy), in words (OVCAR-3; 72 h): no synergistic effect
effect of combination with MPL, in words (OVCAR-3 and A2780): no effect

Ivermectin
effect of the drug alone (A2780; A2780 (ovarian)): inhibited
Interaction of the drug with MPL (synergy), in words (A2780; [4]): synergistic effect

CC#C[C@]1(O)CC[C@H]2[C@@H]3CCC4=CC(=O)CCC4=C3[C@@H](c3ccc(N(C)C)cc3)C[C@@]21C [Mifepristone]
Interaction of the drug with MPL (synergy), in words (A2780; [4]): significant combination synergistic effect

N[C@@H](Cc1c[nH]cn1)C(=O)O [L-histidine]
Interaction of the drug with MPL (synergy), in words (OVCAR-3; 72 h): no synergistic effect
effect of combination with MPL, in words (OVCAR-3 and A2780): no effect

N.N.[Cl][Pt][Cl] [Cisplatin, cis-diamminedichloroplatinum(II)]
Interaction of the drug with MPL (synergy), in words (A2780; [4]): some increase of effect
Interaction of the drug with MPL (synergy), in words (Hep3B): No synergy was observed
